The record followed here is patent US20220056023A1, “PREPARATION AND APPLICATION OF CLASS OF N-CONTAINING HETEROCYCLIC COMPOUNDS HAVING IMMUNOREGULATORY FUNCTION” (SHANGHAI ENNOVABIO PHARMACEUTICALS CO., LTD., priority 2018, published 2022).

Each structure is given as a SMILES string.

In the experiment the target is T1, PD-1/PD-L1 (Homo sapiens, UniProt Q9NZQ7).
T1 construct: purchased Cisbio 63ADK000CPDEC
T1 sequence (Q9NZQ7 19-238 limits assumed): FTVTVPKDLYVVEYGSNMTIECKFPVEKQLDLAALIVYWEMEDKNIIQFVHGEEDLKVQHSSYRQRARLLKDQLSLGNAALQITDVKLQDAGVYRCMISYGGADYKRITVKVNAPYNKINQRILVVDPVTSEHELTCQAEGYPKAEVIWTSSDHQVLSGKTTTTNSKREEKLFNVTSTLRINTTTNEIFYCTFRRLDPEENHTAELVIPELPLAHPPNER
Description: PD-1/PD-L1 homogeneous time-resolved fluorescence (HTRF) binding assay. As to conditions: Tag 1-PD-L1 / Tag 2-PD-1, Cisbio kit. The source says:
The PD-1/PD-L1 homogeneous time-resolved fluorescence method is used to detect the binding ability of the compound with PD-L1.
PD-1/PD-L1 binding assay kit (Cisbio, Cat #63ADK000CPDEC) was chosen, which contains two proteins Tag 1-PD-L1 and Tag 2-PD-1, and two antibodies Anti-Tag1-Eu^3+ and Anti-Tag2-XL 665. The principle of detection was: Anti-tag1-Eu^3+ was used as the donor of HTRF, and Anti-Tag2-XL 665 was used as the acceptor of HTRF. When Tag 1-PD-L1 interacts with Tag 2-PD-1, the added HTRF donor and the acceptor are close to each other. After the donor has received the excitation energy, part of the energy was transferred to the acceptor, thus generating 665 nm emission light. […] The inhibitory effect of the compound can be determined by comparing the ratio of 665 nm/620 nm. Tag 1-PD-L1 was diluted with Diluent buffer (cat #62DLBDDF) to a working concentration of 10 nM, Tag 2-PD-1 was diluted with Diluent buffer to a working concentration of 500 nM, Anti-Tag1-Eu^3+ was diluted with detection buffer (cat #62DB1FDG) at a ratio of 1:100, Anti-Tag2-XL 665 was diluted with detection buffer at a ratio of 1:20, and the compound to be detected was diluted with diluent buffer to a final concentration of 2×. Compound (2 μL) was added to each well of a 384-well plate, then Tag 1-PD-L1 (4 μL) and Tag 2-PD-1 (4 μL) were added successively. The mixture was incubated at room temperature for 15 minutes. Then Anti-Tag1-Eu^3+ (5 μL) and Anti-Tag2-XL 665 (5 μL) were added, and the mixture was incubated overnight at room temperature. BioTek Synergy™ Neo2 multifunctional microplate reader was used to detect so as to provide the 665 nm/620 nm ratio. PrismGraphd 5.02 was used to fit the IC50 curve.
In general terms: TR-FRET usually uses a lanthanide donor and a delayed reading to cut background.
By IC50 is commonly meant the concentration that gives 50% inhibition. As for `COc1cc(CNCCO)cc2c1CN(c1cccc(-c3ccccc3)c1Cl)C2` [Compound 10, 2-(((2-(2-Chloro-[1,1′-biphenyl]-3-yl)-7-methoxyisoindolin-5-yl)methyl)amino)ethane-1-ol], the IC50 was less than 100 nM.
For `Cc1c(-c2ccccc2)cccc1-n1cc2cc(CNCCO)cc(C#N)c2n1` [Compound 9, (((2-Hydroxyethyl)amino)methyl)-2-(2-methyl-[1,1′-biphenyl]-3-yl)-2H-indazole-7-carbonitrile] the value was 100 to 1000 nM.
To `OCCNCc1cnc2nn(-c3cccc(-c4ccccc4)c3Cl)cc2c1` [Compound 1, 2-(((2-(2-Chloro-[1,1′-biphenyl]-3-yl)-2H-pyrazolo[3,4-b]pyridin-5-yl)methyl)amino) ethane-1-ol] belongs 100 to 1000 nM; to `COc1nc(CNCCO)nc2c1CN(c1cccc(-c3ccccc3)c1Cl)C2` [Compound 5, 2-(((6-(2-Chloro-[1,1′-biphenyl]-3-yl)-4-methoxy-6,7-dihydro-5H-pyrrolo[3,4-d)pyrimidin-2-yl)methyl)amino)ethane-1-ol], less than 100 nM; to `COc1nc(CN2CCCC[C@H]2C(=O)O)nc2c1CN(c1cccc(-c3ccccc3)c1Cl)C2` [Compound 6, (S)-1-((6-(2-Chloro-[1,1′-biphenyl]-3-yl)-4-methoxy-6,7-dihydro-5H-pyrrolo[3,4-d)pyrimidin-2-yl)methyl)piperidine-2-carboxylic acid], less than 100 nM.
